Test results from patent publication US7696177B2, “Anti-hypercholesterolemic compounds” (Merck Sharp & Dohme Corp., priority 2005, dated 2010).

System: cholesterol absorption
Assay: Cholesterol Absorption Assay in Mice
Format: in vivo, C57BL/6 male mice
Settings: at the highest dose tested; oral dosing 0.12-10 mg/kg, [3H]-cholesterol counts in liver and plasma 5 h later
Method: Compounds of this invention were determined to inhibit cholesterol absorption employing the Cholesterol Absorption Assay in Mice, below. This assay involves comparing a test compound to ezetimibe with respect to their ability to inhibit cholesterol absorption in mice.
Cholesterol Absorption Assay in Mice:
C57BL/6 male mice (n=6/group), aged 10-14 weeks, were dosed orally with 0.2 ml 0.25% methyl cellulose solution with or without test compound or ezetimibe (0.12-10 mg/kg). Thirty minutes later all of the mice were dosed orally with 0.2 ml […]™ containing 2 μCi [^3H]-cholesterol per mouse. Five hours later, the animals were euthanized, and liver and blood were collected. Cholesterol counts in liver and plasma were determined, and percent inhibition of cholesterol absorption was calculated.

O=C1[C@H](CC[C@H](O)c2ccc(F)cc2)[C@@H](c2ccc(O)cc2)N1c1ccc(F)cc1 [ezetimibe]
inhibition of cholesterol absorption: > 90%
